Marks after values point to notes of the source that are not given here.
Legend:
anti-KLH IgG = test: ELISA for anti-KLH IgG titer in serum of KLH-immunized rats (rat KLH-TDAR model); format: in vivo, F344 rats; conditions: for Anti-KLH IgG titer: twice weekly for 4 weeks, serum, mean ± SE (n = 10)
Experimental: (§1) F344 rats (male, 7 weeks old) were immunized with KLH plus adjuvant twice at day 0 and day 14. From 8 days after last immunization, rats were administered with vehicle or compound (I) (0.3 mpk, i.v. or 1.5 mpk, p.o.) twice weekly for 4 weeks, then the rats were sacrificed and serum, spleen and bone marrow were collected. All study protocols were approved by TAKEDA Animal Care and Use Committee.
Serum was stored at −80° C. until use. Anti-KLH IgG titer in serum was measured by ELISA (KLH rat IgG ELISA kit, Shibayagi).
(§2) Data represent mean values+s.e.m. (n=10). Student t test was used for statistical analysis (*p<0.05, **p<0.01 vs. control).

[1] = tested on: anti-KLH antibody producing cells; test: ELISpot assay of anti-KLH IgG-secreting cells from spleen and bone marrow of KLH-immunized rats; format: in vivo, F344 rats; conditions: for The number of anti-KLH IgG-secreting cells, bone marrow / The number of anti-KLH IgG-secreting cells, Spleen: twice weekly for 4 weeks, mean ± SE (n = 10)
Experimental: as §1
Splenocytes and bone marrow cells were collected from spleen and bone marrow. The cells were cultured for 2 hours on 96 well plate pre-coated with KLH (Sigma, H7017-20 MG), then after washing with PBS, the plates were incubated with goat anti-rat IgG, HRP conjugate (Millipore, AP136P) for 1 hour. Anti-KLH antibody producing cells were visualized by adding TMB substrate and the number of anti-KLH antibody producing cells were counted by ELISpot reader system (AID).
as §2

For CC(C)C[C@H](NC(=O)CNC(=O)c1cc(Cl)ccc1Cl)B(O)O [Compound (I), [(1R)-1-({[(2,5-dichlorobenzoyl)amino]acetyl}amino)-3-methylbutyl]boronic acid], the “Anti-KLH IgG titer” value (anti-KLH IgG; 0.3 mpk, iv) was 509.5 ± 54.4*, the “Anti-KLH IgG titer” value (anti-KLH IgG; 1.5 mpk, po) was 545.8 ± 67.0* and the “effect on anti-KLH IgG titer (in words)” value (anti-KLH IgG; four weeks treatment, 0.3 mpk, i.v. or 1.5 mpk, p.o.) was “significantly suppressed the anti-KLH IgG titer”. For the same molecule, the “The number of anti-KLH IgG-secreting cells, bone marrow” value ([1]; 0.3 mpk, iv) was 103.9 ± 16.9** /3 × 10^5cells, the “The number of anti-KLH IgG-secreting cells, Spleen” value ([1]; 0.3 mpk, iv) was 37.0 ± 6.8** /1 × 10^6cells and the “The number of anti-KLH IgG-secreting cells, bone marrow” value ([1]; 1.5 mpk, po) was 156.4 ± 32.0 /3 × 10^5cells. The “The number of anti-KLH IgG-secreting cells, Spleen” value ([1]; 1.5 mpk, po) was 50.1 ± 12.2* /1 × 10^6cells and the “effect on the number of anti-KLH IgG-producing cells in spleen and bone marrow (in words)” value ([1]; four weeks treatment, 0.3 mpk, i.v. or 1.5 mpk, p.o., ELISpot) was “suppressed the number of anti-KLH IgG-producing cells in spleen and bone marrow”.

— US20160250238A1, “Method for the Prophylaxis or Treatment of Systemic Lupus Erythematosus and/or Lupus Nephritis” (MILLENNIUM PHARMACEUTICALS, INC., priority 2013, published 2016)
